Source: PMC7719179, “Small molecule inhibition of Dynamin-dependent endocytosis targets multiple niche signals and impairs leukemia stem cells” (Nature Communications, 2020)
Several values for one entry are separate records, joined by “and”; a condition that tells them apart may be missing. Identical values can stand only once. Like-named read-outs stand apart in the source and are kept apart here.

How the values were obtained:
primary Lmo2^Tg T-ALL = test: Relative viability and LC50 on primary Lmo2^Tg leukemias, 48 h; assay type: cell-based, mouse; parameters: Relative % viable cells: unit of the concentration uncertain; details: for viability at 200 µM / viability at 40 µM: Mus musculus
Experimental: Supplementary Figure 6 . Efficacy of Dynole 34-2 on primary Lmo2-transgenic T-ALL. a, Relative viability (%) of primary Lmo2Tg leukemias treated with increasing concentration of Dynole 34-2 for 48 hours. Viability was normalized to vehicle-treated cells with experiments performed in duplicates or triplicates. […]
concentration (LC50) of Dynole 34-2 for each primary L mo2Tg T-ALL are indicated (right panel). […]

[1] = system: patient-derived ETP-ALL and T-ALL xenografts; test: Relative viability and LC50 on patient-derived ETP-ALL and T-ALL xenografts, 48 h; assay type: cell-based, human; parameters: Relative % viable cells: unit of the concentration uncertain; details: for CC50: Homo sapiens, read-out: LC50 Dynole 34-2
Source text: patient-derived (a ) ETP- ALL1 and (b) T-ALL 2 xenografts treated with increasing concentration of […]
Viability was normalized to vehicle-treated cells with experiments performed in duplicates. Human CD34-positive (CD34+) hematopoietic stem and progenitors from healthy donors (N=3) were used as controls. […]

[2] = system: HES1 in patient-derived ETP-ALL and T-ALL cells; test: NOTCH1-induced HES1 in human ETP-ALL and T-ALL xenograft cells; assay type: cell-based; details: for HES1 relative expression, FOLD: fold over unstimulated
Experimental: Splenocytes from secondary xenografts were processed as previously described. […] Flow cytometric analysis of surface IL-7R levels and intracellular levels of pSTAT5 were performed as described in the FACS analysis section. For activation of NOTCH1-mediated signalling, 5 × 10^5 rested leukemia cells were seeded on OP9-DL1 stromal cells. Co-culture on OP9 stromal cells was used as a negative control. After 16 h of co-culture, leukemia cells were washed twice using cold PBS 1×. Flow cytometric analysis of NOTCH1 expression and intracellular levels of HES1 were performed as described in the FACS analysis section.

Q: Which results are given for `CCCCCCCCNC(=O)C(C#N)=Cc1cn(CCCN(C)C)c2ccccc12` [Dynole 34-2, 2-Cyano-N-octyl-3-(1-(3-dimethylaminopropyl)-1H-indol-3-yl)-acrylamide]?
A: viability at 200 µM (primary Lmo2^Tg T-ALL; read-out: Relative % viable cells, T-ALL 249, dose 0.2 mM): 94.3%; viability at 40 µM (primary Lmo2^Tg T-ALL; read-out: Relative % viable cells, T-ALL 257, dose 0.04 mM): 92.3%; viability at 200 µM (primary Lmo2^Tg T-ALL; read-out: Relative % viable cells, T-ALL 257, dose 0.2 mM): 76.4%; viability at 200 µM (primary Lmo2^Tg T-ALL; read-out: Relative % viable cells, T-ALL 273, dose 0.2 mM): 96.1%; viability at 200 µM (primary Lmo2^Tg T-ALL; read-out: Relative % viable cells, T-ALL 582, dose 0.2 mM): 97.6%; viability at 40 µM (primary Lmo2^Tg T-ALL; read-out: Relative % viable cells, T-ALL 588, dose 0.04 mM): 114%; Relative % viable cells (primary Lmo2^Tg T-ALL; T-ALL 249, dose 0.2 (unit uncertain)): 101.0% and 98.6%; Relative % viable cells (primary Lmo2^Tg T-ALL; T-ALL 249, dose 1 (unit uncertain)): 97.4%; Relative % viable cells (primary Lmo2^Tg T-ALL; T-ALL 249, dose 5 (unit uncertain)): 98.6% and 97.8%; Relative % viable cells (primary Lmo2^Tg T-ALL; T-ALL 249, dose 25 (unit uncertain)): 14.0%; Relative % viable cells (primary Lmo2^Tg T-ALL; T-ALL 257, dose 0.04 (unit uncertain)): 86.6%; Relative % viable cells (primary Lmo2^Tg T-ALL; T-ALL 257, dose 0.2 (unit uncertain)): 75.9%; Relative % viable cells (primary Lmo2^Tg T-ALL; T-ALL 257, dose 1 (unit uncertain)): 71.8%; Relative % viable cells (primary Lmo2^Tg T-ALL; T-ALL 257, dose 5 (unit uncertain)): 49.8%; Relative % viable cells (primary Lmo2^Tg T-ALL; T-ALL 273, dose 0.2 (unit uncertain)): 96.5% and 91.9%; Relative % viable cells (primary Lmo2^Tg T-ALL; T-ALL 273, dose 1 (unit uncertain)): 92.9% and 93.1%; Relative % viable cells (primary Lmo2^Tg T-ALL; T-ALL 273, dose 5 (unit uncertain)): 56.4% and 42.9%; Relative % viable cells (primary Lmo2^Tg T-ALL; T-ALL 273, dose 10 (unit uncertain)): 20.2% and 18.0%; Relative % viable cells (primary Lmo2^Tg T-ALL; T-ALL 273, dose 25 (unit uncertain)): 17.9%; Relative % viable cells (primary Lmo2^Tg T-ALL; T-ALL 582, dose 0.2 (unit uncertain)): 94.2%; Relative % viable cells (primary Lmo2^Tg T-ALL; T-ALL 582, dose 1 (unit uncertain)): 97.3%; Relative % viable cells (primary Lmo2^Tg T-ALL; T-ALL 582, dose 5 (unit uncertain)): 75.4% and 57.9%; Relative % viable cells (primary Lmo2^Tg T-ALL; T-ALL 582, dose 10 (unit uncertain)): 8.4% and 8.6%; Relative % viable cells (primary Lmo2^Tg T-ALL; T-ALL 582, dose 25 (unit uncertain)): 6.2%; Relative % viable cells (primary Lmo2^Tg T-ALL; T-ALL 588, dose 0.04 (unit uncertain)): 111.1%; Relative % viable cells (primary Lmo2^Tg T-ALL; T-ALL 588, dose 0.2 (unit uncertain)): 107.5% and 75.9%; Relative % viable cells (primary Lmo2^Tg T-ALL; T-ALL 588, dose 1 (unit uncertain)): 100.1%; Relative % viable cells (primary Lmo2^Tg T-ALL; T-ALL 588, dose 5 (unit uncertain)): 75.8%; Relative % viable cells (primary Lmo2^Tg T-ALL; T-ALL 588, dose 25 (unit uncertain)): 11.9%; Relative % viable cells (primary Lmo2^Tg T-ALL; T-ALL 742, dose 0.2 (unit uncertain)): 53.7% and 80.5%; Relative % viable cells (primary Lmo2^Tg T-ALL; T-ALL 742, dose 1 (unit uncertain)): 25.7%; Relative % viable cells (primary Lmo2^Tg T-ALL; T-ALL 742, dose 5 (unit uncertain)): 22.9%; Relative % viable cells (primary Lmo2^Tg T-ALL; T-ALL 742, dose 25 (unit uncertain)): 0.0%; killing of LSCs from primary Lmo2^Tg T-ALL (primary Lmo2^Tg T-ALL; result in words): dose-dependent killing; Relative % viable cells ([1]; ALL8, dose 0.04 (unit uncertain)): 90.4% and 94.4%; Relative % viable cells ([1]; ALL8, dose 0.2 (unit uncertain)): 80.81% and 92.6%; Relative % viable cells ([1]; ALL8, dose 1 (unit uncertain)): 72.11% and 72.9% and 110.2%; Relative % viable cells ([1]; ALL8, dose 5 (unit uncertain)): 59.7% and 59.2%; Relative % viable cells ([1]; ALL8, dose 125 (unit uncertain)): 1.3% and 3.1% and 2.3%; Relative % viable cells ([1]; ALL29, dose 0.04 (unit uncertain)): 101.7% and 96.7%; Relative % viable cells ([1]; ALL29, dose 0.2 (unit uncertain)): 96.7% and 101.5%; Relative % viable cells ([1]; ALL29, dose 5 (unit uncertain)): 40.7% and 42.8%; Relative % viable cells ([1]; ALL29, dose 125 (unit uncertain)): 9.1% and 6.3% and 3%; Relative % viable cells ([1]; ALL33, dose 0.04 (unit uncertain)): 93.7% and 90.9%; Relative % viable cells ([1]; ALL33, dose 0.2 (unit uncertain)): 85.9%; Relative % viable cells ([1]; ALL33, dose 5 (unit uncertain)): 38.4% and 45.6%; Relative % viable cells ([1]; ALL33, dose 25 (unit uncertain)): 25.8% and 17.5%; Relative % viable cells ([1]; ALL33, dose 125 (unit uncertain)): 0%; Relative % viable cells ([1]; ETP1, dose 0.04 (unit uncertain)): 101.2%; Relative % viable cells ([1]; ETP1, dose 0.2 (unit uncertain)): 100.4% and 100%; Relative % viable cells ([1]; ETP1, dose 1 (unit uncertain)): 99.9% and 99.8%; Relative % viable cells ([1]; ETP1, dose 5 (unit uncertain)): 98.2%; Relative % viable cells ([1]; ETP1, dose 25 (unit uncertain)): 36.3% and 35.6%; Relative % viable cells ([1]; ETP1, dose 125 (unit uncertain)): 7% and 0%; Relative % viable cells ([1]; ETP5, dose 0.04 (unit uncertain)): 102.7%; Relative % viable cells ([1]; ETP5, dose 0.2 (unit uncertain)): 95.7% and 97.2%; Relative % viable cells ([1]; ETP5, dose 1 (unit uncertain)): 97.7%; Relative % viable cells ([1]; ETP5, dose 5 (unit uncertain)): 90.9% and 92.8%; Relative % viable cells ([1]; ETP5, dose 25 (unit uncertain)): 25.9% and 13.9%; Relative % viable cells ([1]; ETP5, dose 125 (unit uncertain)): 2.9% and 6.9% and 3.5%; Relative % viable cells ([1]; ETP12, dose 0.04 (unit uncertain)): 107.6% and 104.3%; Relative % viable cells ([1]; ETP12, dose 0.2 (unit uncertain)): 95.8% and 90.7%; Relative % viable cells ([1]; ETP12, dose 5 (unit uncertain)): 77.5%; Relative % viable cells ([1]; ETP12, dose 25 (unit uncertain)): 2.7% and 1.6% and 1.1%; Relative % viable cells ([1]; ETP12, dose 125 (unit uncertain)): 2.6% and 7.9% and 2%; Relative % viable cells ([1]; ETP13, dose 0.04 (unit uncertain)): 91.2% and 89.4%; Relative % viable cells ([1]; ETP13, dose 0.2 (unit uncertain)): 91.8% and 87.5%; Relative % viable cells ([1]; ETP13, dose 1 (unit uncertain)): 90.4% and 102.1%; Relative % viable cells ([1]; ETP13, dose 5 (unit uncertain)): 60.7% and 66.4% and 84.4%; Relative % viable cells ([1]; ETP13, dose 25 (unit uncertain)): 4.2% and 3.5%; Relative % viable cells ([1]; ETP13, dose 125 (unit uncertain)): 1.5% and 2.3% and 0.7%; Relative % viable cells ([1]; ETP14, dose 0.04 (unit uncertain)): 74% and 80.7% and 108.4%; Relative % viable cells ([1]; ETP14, dose 0.2 (unit uncertain)): 80.8% and 85.9%; Relative % viable cells ([1]; ETP14, dose 1 (unit uncertain)): 56.6% and 73.2% and 82.4%; Relative % viable cells ([1]; ETP14, dose 5 (unit uncertain)): 58.1% and 85.7% and 56%; Relative % viable cells ([1]; ETP14, dose 25 (unit uncertain)): 10.8% and 11.5%; CC50 ([1]; ALL8, Relapse, Mature): 5.76 µM; CC50 ([1]; ALL29, Diagnosis, Mature): 4.51 µM; CC50 ([1]; ALL33, Diagnosis, Mature): 2.43 µM; CC50 ([1]; ETP1, Diagnosis, ETP): 19.9 µM; CC50 ([1]; ETP5, Diagnosis, ETP): 49.9 µM; CC50 ([1]; ETP12, Diagnosis, ETP): 4.26 µM; CC50 ([1]; ETP13, Diagnosis, ETP): 7.05 µM; CC50 ([1]; ETP14, Diagnosis, ETP): 5.25 µM; HES1 relative expression, MFI ([2]; ALL8): 4877 MFI and 4405 MFI; HES1 relative expression, FOLD ([2]; ALL8): 0.60 FOLD and 0.67 FOLD; HES1 relative expression, MFI ([2]; ALL16): 5772 MFI and 5666 MFI; HES1 relative expression, FOLD ([2]; ALL16): 0.83 FOLD and 0.85 FOLD; HES1 relative expression, MFI ([2]; ALL29): 5243 MFI and 5145 MFI; HES1 relative expression, FOLD ([2]; ALL29): 0.70 FOLD and 0.71 FOLD; HES1 relative expression, MFI ([2]; ALL31): 5977 MFI and 5691 MFI; HES1 relative expression, FOLD ([2]; ALL31): 0.71 FOLD and 0.74 FOLD; HES1 relative expression, MFI ([2]; ALL33): 6590 MFI and 6678 MFI; HES1 relative expression, FOLD ([2]; ALL33): 0.90 FOLD and 0.89 FOLD; HES1 relative expression, MFI ([2]; ETP1): 6721 MFI and 6600 MFI; HES1 relative expression, FOLD ([2]; ETP1): 0.88 FOLD and 0.90 FOLD; HES1 relative expression, MFI ([2]; ETP5): 7460 MFI and 7513 MFI; HES1 relative expression, FOLD ([2]; ETP5): 0.72 FOLD; HES1 relative expression, MFI ([2]; ETP8): 6107 MFI and 5672 MFI; HES1 relative expression, FOLD ([2]; ETP8): 0.72 FOLD and 0.78 FOLD; HES1 relative expression, MFI ([2]; ETP12): 6018 MFI and 5803 MFI; HES1 relative expression, FOLD ([2]; ETP12): 0.87 FOLD and 0.89 FOLD; HES1 relative expression, MFI ([2]; ETP13): 4629 MFI and 4445 MFI; HES1 relative expression, FOLD ([2]; ETP13): 0.69 FOLD and 0.72 FOLD; HES1 relative expression, MFI ([2]; ETP14): 4477 MFI and 4496 MFI; HES1 relative expression, FOLD ([2]; ETP14): 0.89 FOLD and 0.86 FOLD; HES1 protein levels ([2]; immature and mature subtypes of human T-ALL, result in words): significantly decreased
